Activity calls are given as the source filed them. No cut-off for these calls is given here. Square brackets hold non-standard residues; d marks the D form. Peptide text beside a SMILES is read from it. Leu(ol) = CC(C)C[C@H](N)CO; Aib = CC(C)(N)C(=O)O

The test system of experiment [1] is Candida albicans. The experiment in a line: Antifungal activity against Candida albicans. It is filed as functional, organism-based.
Experiment [2] deals with HCT-116. The experiment in a line: Antiproliferative activity against human HCT-116 cells assessed as reduction in cell viability incubated for 24 hrs by MTT assay. It is filed as functional, cell-based. The conditions noted are these: HCT-116, 24 h. (Tetrazolium dyes change colour on reduction, which living cells bring about.)
Experiment [3] relates to Fusarium oxysporum. The experiment in a line: Antifungal activity against Fusarium oxysporum KCTC 16654. It is filed as functional, organism-based.
For experiment [4], the system named is SK-OV-3. The experiment is described as follows: Antiproliferative activity against human SK-OV-3 cells assessed as reduction in cell viability incubated for 24 hrs by MTT assay. The experiment is classed as functional, cell-based. The conditions noted are these: SK-OV-3, 24 h.
Experiment [5] concerns DU-145. The experiment is described as follows: Antiproliferative activity against human DU-145 cells assessed as reduction in cell viability incubated for 24 hrs by MTT assay. The conditions noted are these: DU-145, 24 h. The experiment is classed as functional, cell-based.
In experiment [6] the test system is MDA-MB-231. The experiment in a line: Antiproliferative activity against human MDA-MB-231 cells assessed as reduction in cell viability incubated for 24 hrs by MTT assay. It is filed as functional, cell-based. The note with it: MDA-MB-231, 24 h.
The subject of experiment [7] is [Candida] auris. The experiment is described as follows: Antifungal activity against Candida auris. The note with it: Candidozyma auris. The experiment is classed as functional, organism-based.
For experiment [8], the system named is SNU-449. The experiment is described as follows: Antiproliferative activity against human SNU-449 cells assessed as reduction in cell viability incubated for 24 hrs by MTT assay. The conditions noted are these: SNU-449, 24 h. It is filed as functional, cell-based.

Usually IC50 stands for the concentration needed to halve the response being measured. On to `CC[C@H](C)[C@H](NC(=O)C(C)(C)NC(=O)C(C)(C)NC(=O)[C@H](C)NC(=O)C(C)(C)NC(C)=O)C(=O)N[C@@H](CCC(N)=O)C(=O)NC(C)(C)C(=O)NC(C)(C)C(=O)NC(C)(C)C(=O)N[C@@H](CO)C(=O)N[C@H](C(=O)NC(C)(C)C(=O)N1CCC[C@H]1C(=O)N[C@H](C(=O)NC(C)(C)C(=O)NC(C)(C)C(=O)N[C@@H](CCC(N)=O)C(=O)N[C@@H](CCC(N)=O)C(=O)N[C@H](CO)CC(C)C)C(C)C)C(C)C` (Ac-[Aib]A[Aib][Aib]IQ[Aib][Aib][Aib]SV[Aib]PV[Aib][Aib]QQ[Leu(ol)]), for which the result in experiment [1], in experiment [3] and in experiment [7] was inactive. The IC50 was 9 µM in experiment [2]; 26.7 µM in experiment [4]; 12.2 µM in experiment [5]; 8.7 µM in experiment [6]; over 150 µM in experiment [8].

The values above are taken from ChEMBL document CHEMBL5584297, “Cytotoxic Peptaibols from Trichoderma strigosum” (J Nat Prod, 2024).
